Holding throughout (format): cell-based
Experiment [1] has as its system Gram-negative bacteria. Put plainly: MIC determination by disk-diffusion method, Gram-negative bacteria. As to the method: (§1) Tests for antimicrobial activities were carried out using rosin-derived quaternary ammonium 1 and their polymer 4 with a number-average molecular weight of 7.5×105 g/mol. The antimicrobial susceptibilities of several Gram-negative bacteria (e.g. Pseudomonas aeruginosa, Escherichia coli, Enterobacter aerogenes, and Klebsiella pneumonia) and Gram-positive bacteria (Staphylococcus aureus and Bacillus cereus) were determined. These strains were purified at laboratory and maintained at −70° C. in a 1:1 mixture of glycerol and dimethylsulfoxide (DMSO). To conduct the assays, a small volume of actively-growing cultures of each bacterial strain is spread on agar plates, and incubated at 28° C. for 24 h to form a ‘bacterial lawn’ covering the plate surface. Then 6 mm (dia) filter discs are added to the surface, and 30 ul samples (containing each compound at several concentrations dissolved in DMSO) are applied to the disc surfaces, and the plates are incubated.
(§2) Considering the potential applications of antimicrobial compounds and polymers as coatings for food packaging, medical implants and devices, and antifouling surfaces, all subsequent MIC determinations were carried out using the disk-diffusion method.
A general note: Agar diffusion results depend on both activity and mobility in agar.

For experiment [2], the system named is Gram-positive bacteria. As to the kind of experiment: MIC determination by disk-diffusion method, Gram-positive bacteria. How it is done:
as §1, §2

The test system of experiment [3] is different bacterial strains. Put plainly: Control experiments with residual copper catalysts and solvents. As to conditions: control for residual catalyst/solvent. As to the method: To further confirm that the antimicrobial activities were not caused by residual copper catalysts and solvents (i.e. methanol), control experiments were carried out using these reagents against different bacterial strains.

For `CC[N+](CC)(CC)CC.[Br-]` [TEAB, tetraethylammonium bromide], the “antimicrobial activity (control experiments)” value in experiment [1] and in experiment [2] was “no activities” in each case. In the case of `CO` [methanol], the “toxicity against bacterial strains” value in experiment [3] is given as “did not exhibit significant toxicity”.

The values are drawn from US9357775B2, “Rosin-derived cationic compounds and polymers” (University of South Carolina, priority 2011, dated 2016).
